Where a name gives a salt, the structure may show the parent alone.
What was measured:
[1] = Feasibility pK rat study of aqueous micro-suspensions (LAI feasibility); assay type: in vivo; settings: IM, 50 mg/kg; for long-acting release profile: 125 mg/mL micro-suspension pH 5
Protocol: For this study, aqueous micro-suspensions of Selexipag, {4-[(5,6-diphenylpyrazin-2-yl)(propan-2-yl)amino]butoxy}acetic acid and calcium; {4-[(5,6-diphenylpyrazin-2-yl)(propan-2-yl)amino]butoxy}acetate were prepared. An overview of the design of the study can be found in Table 1.
Release profiles and mean AUC of the different formulations are depicted in FIG. 1.

[2] = Assay/purity of gamma-irradiated drug product (UPLC); assay type: physicochemical; settings: gamma-irradiation 40 and 60 kGy
From the text: For this reason, both gamma-irradiation and autoclavation (steam sterilization) of the final drug product need to be investigated. To evaluate the chemical stability of the final drug product during gamma-irradiation, 2 different concepts with calcium; {4-[(5,6-diphenylpyrazin-2-yl)(propan-2-yl)amino]butoxy}acetate having a particle size Dv50 of 8 micrometer were subjected to an irradiation grade of 40 kGy and 60 kGy.
Analytical Method used: The assay and the impurities of the gamma irradiated and non-gamma irradiated (ref) calcium salt of selexipag metabolite suspension (formulation) were analysed using reversed phase chromatography. Sample preparation was done by weighing 0.5 mL suspension in a 500 mL flask. Approximately 200 mL pH7 phosphate buffer:ACN (50:50) was added whereafter the flask was shaken mechanically for at least 30 minutes until complete dissolution. Dilute to volume with pH7 phosphate buffer:ACN (50:50). The resulting solution was diluted 5× by pipetting 5 mL into a 25 mL flask and diluting with the same dilution solvent. […]
Analysis was performed using a Waters UPLC H-Class equipped with DAD detector, column manager and auto-sampler. […] The assay value of the sample is calculated according following formula: […]
The concentration of an impurity is calculated according following formula: […]

[3] = Assay/purity of drug product after autoclavation (steam sterilization); assay type: physicochemical
Protocol: In parallel with gamma-irradiation of the final drug product (formulated calcium; {4-[(5,6-diphenylpyrazin-2-yl)(propan-2-yl)amino]butoxy}acetate having a particle size Dv50 of 8 micrometer), autoclavation (steam sterilization) was evaluated as well.
Not only the effect upon chemical stability, but upon resuspendability was evaluated as well for the process of autoclavation (steam sterilization). The tested samples of experiment 142 were evaluated for resuspendability right after autoclavation (T0) and after 14 days of storage at 5° C. Time needed for resuspendability was acceptable at both timepoints.

[4] = Assay/purity of gamma-irradiated drug substance (UPLC); assay type: physicochemical
Protocol: To evaluate if gamma-irradiation could be used to produce sterile product, different irradiation grades were tested on calcium; {4-[(5,6-diphenylpyrazin-2-yl)(propan-2-yl)amino]butoxy}acetate. In this study, calcium; {4-[(5,6-diphenylpyrazin-2-yl)(propan-2-yl)amino]butoxy}acetate (“COMPOUND”) was irradiated with three different grades (i.e. 5, 25 and 40 kGy). Each irradiation grade was applied on two different COMPOUND vials. One of the two vials for each grade was flushed with nitrogen for 10 seconds. One reference vial containing non-irradiated COMPOUND was included in the assay/purity analysis. All samples were analyzed immediately after irradiation (Table 15) and re-analyzed after 3 months of storage at room temperature.
A second study was conducted on calcium: {4-[(5,6-diphenylpyrazin-2-yl)(propan-2-yl)amino]butoxy}acetate where three different irradiation grades were applied (i.e 5, 25 and 40 kGy).
Analytical Method used: The assay and the impurities of calcium salt of selexipag metabolite before (ref) and after gamma irradiation were analysed using reversed phase chromatography. Sample preparation was done by weighing 50 mg of sample in a 500 mL flask. Approximately 100 mL pH7 phosphate buffer:ACN (50:50) was added whereafter the flask was shaken mechanically for at least 30 minutes until complete dissolution. Dilute to volume with pH7 phosphate buffer:ACN (50:50). The resulting solution was diluted 5× by pipetting 5 mL into a 25 mL flask and diluting with the same dilution solvent. The reference solution is made following the same sample preparation, but using calcium salt of selexipag metabolite (“API”).
Analysis was performed using a Waters UPLC H-Class equipped with DAD detector, column manager and auto-sampler. Separation was done on a Acquity UPLC BEH C18 (2.1×150 mm, 1.7 μm) analytical column using a column temperature of 60° C. DAD detector was set on 230 nm. A 10 mM NH4Ac:ACN:MeOH (950:38:12) solution was used as mobile phase A. A 10 mM NH4Ac:ACN:MeOH (50:710:240) solution was used as mobile phase B. A linear gradient program of 26 minutes was applied starting in which the mobile phase B increases from 5% to 100% in 20 minutes. Hereafter the concentration of mobile phase B was brought back to 5% in 1 minute followed by an equilibration time of 5 minutes. The applied flow rate is 0.30 mL/min. An injection volume of 7 μL was used for the analysis. The assay value of the sample is calculated according following formula:
%=[API peak responsesample×concref×purityref×100%]/[peak responseref×concsample]
The concentration of an impurity is calculated according following formula:
%=[Impurity peak responsesample×concref×purityref×100%]/[peak responseref×concsample]

[5] = tested on: patients with pulmonary arterial hypertension; settings: phase III clinical trial, versus placebo; cited from earlier work
[6] = 5 kGy, 3 months at room temperature
[7] = 5 kGy, 3 months at room temperature, flushed with N2
[8] = 25 kGy, 3 months at room temperature
[9] = 25 kGy, 3 months at room temperature, flushed with N2
[10] = 40 kGy, 3 months at room temperature
[11] = 40 kGy, 3 months at room temperature, flushed with N2
[12] = Reference (non-irradiated), 3 months at room temperature

SMILES: CC(C)N(CCCCOCC(=O)O)c1cnc(-c2ccccc2)c(-c2ccccc2)n1 [ACT-333679, 2-(4-((5,6-diphenylpyrazin-2-yl)(isopropyl)amino)butoxy)acetic acid, reference compound]
- long-acting release profile [1]: did not demonstrate a long-acting release profile

SMILES: CC(C)N(CCCCOCC(=O)O)c1cnc(-c2ccccc2)c(-c2ccccc2)n1 [Ca-salt of ACT-333679, calcium; {4-[(5,6-diphenylpyrazin-2-yl)(propan-2-yl)amino]butoxy}acetate]
- AUC increases up until ([1]; 125 mg/mL micro-suspension): ≤ 720 h
- long-acting release profile up to ([1]; 125 mg/mL micro-suspension): up to 336 hours
- plasma concentrations ([1]; 125 mg/mL micro-suspension, FIG. 1): significant lower plasma concentrations compared to both other groups
- chemical stability in the drug product [2]: acceptable
- chemical stability in the drug product [3]: chemically stable
- Assay, % COMPOUND [4, 6]: 94.0%
- Impurity, % RRT 1.16* [4, 6]: <0.05%
- Impurity, % RRT 1.32* [4, 6]: 0.06%
- Impurity, % RRT 1.34* [4, 6]: <0.05%
- Assay, % COMPOUND [4, 7]: 94.1%
- Impurity, % RRT 1.16* [4, 7]: <0.05%
- Impurity, % RRT 1.32* [4, 7]: 0.06%
- Impurity, % RRT 1.34* [4, 7]: <0.05%
- Assay, % COMPOUND ([4]; 5 kGy, T0): 95.3%
- Impurity, % RRT 1.16* ([4]; 5 kGy, T0): 0.05%
- Impurity, % RRT 1.32* ([4]; 5 kGy, T0): <0.05%
- Impurity, % RRT 1.34* ([4]; 5 kGy, T0): 0.09%
- Assay, % COMPOUND ([4]; 5 kGy, T0, flushed with N2): 94.6%
- Impurity, % RRT 1.16* ([4]; 5 kGy, T0, flushed with N2): 0.05%
- Impurity, % RRT 1.32* ([4]; 5 kGy, T0, flushed with N2): <0.05%
- Impurity, % RRT 1.34* ([4]; 5 kGy, T0, flushed with N2): 0.06%
- Assay, % COMPOUND [4, 8]: 94.2%
- Impurity, % RRT 1.16* [4, 8]: 0.07%
- Impurity, % RRT 1.32* [4, 8]: 0.12%
- Impurity, % RRT 1.34* [4, 8]: 0.06%
- Assay, % COMPOUND [4, 9]: 93.6%
- Impurity, % RRT 1.16* [4, 9]: <0.05%
- Impurity, % RRT 1.32* [4, 9]: 0.05%
- Impurity, % RRT 1.34* [4, 9]: 0.08%
- Assay, % COMPOUND ([4]; 25 kGy, T0): 95.1%
- Impurity, % RRT 1.16* ([4]; 25 kGy, T0): 0.10%
- Impurity, % RRT 1.32* ([4]; 25 kGy, T0): 0.11%
- Impurity, % RRT 1.34* ([4]; 25 kGy, T0): 0.06%
- Assay, % COMPOUND ([4]; 25 kGy, T0, flushed with N2): 95.6%
- Impurity, % RRT 1.16* ([4]; 25 kGy, T0, flushed with N2): <0.05%
- Impurity, % RRT 1.32* ([4]; 25 kGy, T0, flushed with N2): 0.13%
- Impurity, % RRT 1.34* ([4]; 25 kGy, T0, flushed with N2): 0.09%
- Assay, % COMPOUND [4, 10]: 94.3%
- Impurity, % RRT 1.16* [4, 10]: 0.08%
- Impurity, % RRT 1.32* [4, 10]: 0.15%
- Impurity, % RRT 1.34* [4, 10]: 0.10%
- Assay, % COMPOUND [4, 11]: 92.9%
- Impurity, % RRT 1.16* [4, 11]: 0.08%
- Impurity, % RRT 1.32* [4, 11]: 0.14%
- Impurity, % RRT 1.34* [4, 11]: 0.10%
- Assay, % COMPOUND ([4]; 40 kGy, T0): 94.3%
- Impurity, % RRT 1.16* ([4]; 40 kGy, T0): 0.13%
- Impurity, % RRT 1.32* ([4]; 40 kGy, T0): 0.14%
- Impurity, % RRT 1.34* ([4]; 40 kGy, T0): 0.06%
- Assay, % COMPOUND ([4]; 40 kGy, T0, flushed with N2): 94.5%
- Impurity, % RRT 1.16* ([4]; 40 kGy, T0, flushed with N2): 0.12%
- Impurity, % RRT 1.32* ([4]; 40 kGy, T0, flushed with N2): 0.15%
- Impurity, % RRT 1.34* ([4]; 40 kGy, T0, flushed with N2): 0.07%
- Assay, % COMPOUND [4, 12]: 94.4%
- Impurity, % RRT 1.16* [4, 12]: <0.05%
- Impurity, % RRT 1.32* [4, 12]: <0.05%
- Impurity, % RRT 1.34* [4, 12]: <0.05%
- Assay, % COMPOUND ([4]; Reference (non-irradiated), T0): 95.3%
- Impurity, % RRT 1.16* ([4]; Reference (non-irradiated), T0): <0.05%
- Impurity, % RRT 1.32* ([4]; Reference (non-irradiated), T0): <0.05%
- Impurity, % RRT 1.34* ([4]; Reference (non-irradiated), T0): 0.09%
- chemical stability ([4]; drug substance, gamma-irradiation 5, 25, 40 kGy): acceptable
- Assay, % COMPOUND ([4]; second study, 5 kGy): 104.4%
- Impurity, % RRT 1.15* ([4]; second study, 5 kGy): <0.05%
- Impurity, % RRT 1.16* ([4]; second study, 5 kGy): <0.05%
- Impurity, % RRT 1.32* ([4]; second study, 5 kGy): <0.05%
- Assay, % COMPOUND ([4]; second study, 25 kGy): 104.3%
- Impurity, % RRT 1.15* ([4]; second study, 25 kGy): 0.06%
- Impurity, % RRT 1.16* ([4]; second study, 25 kGy): 0.09%
- Impurity, % RRT 1.32* ([4]; second study, 25 kGy): 0.07%
- Assay, % COMPOUND ([4]; second study, 40 kGy): 103.7%
- Impurity, % RRT 1.15* ([4]; second study, 40 kGy): 0.06%
- Impurity, % RRT 1.16* ([4]; second study, 40 kGy): 0.12%
- Impurity, % RRT 1.32* ([4]; second study, 40 kGy): 0.10%

SMILES: CC(C)N(CCCCOCC(=O)NS(C)(=O)=O)c1cnc(-c2ccccc2)c(-c2ccccc2)n1 [Selexipag, 2-{4-[(5,6-diphenylpyrazin-2-yl)(propan-2-yl)amino]butoxy}-N-(methanesulfonyl)acetamide, reference compound]
- risk of the primary composite end point of death or a complication related to pulmonary arterial hypertension [5]: significantly lower
- long-acting release profile [1]: did not demonstrate a long-acting release profile
